Source: ChEMBL document CHEMBL6127056, “Novel mechanistic insights - A brand new Era for anti-HBV drugs” (Eur J Med Chem, 2024)
Each block holds one compound with its values, some of them ahead of it. Residues, ends and D or L forms follow the SMILES beside them.

What was measured:
[1] = target: Triosephosphate isomerase (Homo sapiens, UniProt P60174); assay: Inhibition of TPI1 (unknown origin)
[2] = target: Lysine-specific demethylase 5B (Homo sapiens, UniProt Q9UGL1); assay: Inhibition of KDM5B (unknown origin)
[3] = tested on: Hepatitis B virus; assay: Antiviral activity against Hepatitis B virus assessed as inhibition of HBV DNA replication; type: functional, organism-based
[4] = tested on: Hepatitis B virus; assay: Antiviral activity against HBV infected in human HePAD38 cells assessed as reduction in viral replication by qPCR analysis; type: functional, organism-based
[5] = tested on: Hepatitis B virus; assay: Antiviral activity against HBV infected in human HepG2-NTCP12 cells assessed as inhibition of viral replication; type: functional, organism-based
[6] = tested on: Hepatitis B virus; assay: Antiviral activity against HBV infected in human Primary hepatocytes assessed as reduction in HBV DNA level measured after 16 days by ELISA; conditions: Hepatocyte, 384 h
[7] = tested on: Hepatitis B virus; assay: Antiviral activity against HBV infected in human HepG2.2.15 cells assessed as reduction in viral DNA levels incubated for 6 days by PCR analysis; type: functional, organism-based; conditions: HepG2.2.15, 144 h
[8] = tested on: Hepatitis B virus; assay: Antiviral activity against HBV infected in human HepG2.2.15 cells; type: functional, organism-based
[9] = tested on: Hepatitis B virus; assay: Antiviral activity against Hepatitis B virus ayw1 infected in human HepG2 2.2.15 cells assessed as reduction in viral DNA replication incubated for 6 days by qPCR analysis; type: functional, organism-based; conditions: ayw1, HepG2 2.2.15, 144 h
[10] = Inhibition of HBV RNA polymerase; set-up: species or system Hepatitis B virus
[11] = tested on: Hepatitis B virus; assay: Antiviral activity against wild type HBV infected in HepG2.2.15 cells assessed as reduction in viral replication; type: functional, organism-based
[12] = target: T1, Hepatic sodium/bile acid cotransporter (Homo sapiens, UniProt Q14973); assay: Inhibition of NTCP (unknown origin) stably transfected in HEK293 cells; type: cell-based
T1 sequence (Q14973 whole entry): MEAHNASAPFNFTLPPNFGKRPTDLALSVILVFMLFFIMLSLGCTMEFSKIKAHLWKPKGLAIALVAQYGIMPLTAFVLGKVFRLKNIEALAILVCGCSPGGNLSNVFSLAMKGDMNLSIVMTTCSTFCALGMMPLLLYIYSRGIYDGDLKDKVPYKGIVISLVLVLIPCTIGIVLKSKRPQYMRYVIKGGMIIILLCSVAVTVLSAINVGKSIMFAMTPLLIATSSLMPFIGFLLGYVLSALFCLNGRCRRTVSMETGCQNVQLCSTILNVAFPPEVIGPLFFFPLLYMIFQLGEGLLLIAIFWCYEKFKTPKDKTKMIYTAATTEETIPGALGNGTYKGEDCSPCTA

[13] = tested on: Hepatitis B virus; assay: Antiviral activity against HBV infected in human Primary hepatocyte assessed as reduction in HBV replication; type: functional, organism-based
[14] = tested on: Hepatitis B virus; assay: Antiviral activity against HBV infected in human HepG2.117 cells assessed as reduction in intracellular DNA level by RT-qPCR analysis; type: functional, organism-based
[15] = target: Human immunodeficiency virus type 1 reverse transcriptase (Human immunodeficiency virus 1, UniProt Q72547); assay: Inhibition of HIV-1 reverse transcriptase

Sequence of Triosephosphate isomerase (P60174 whole entry): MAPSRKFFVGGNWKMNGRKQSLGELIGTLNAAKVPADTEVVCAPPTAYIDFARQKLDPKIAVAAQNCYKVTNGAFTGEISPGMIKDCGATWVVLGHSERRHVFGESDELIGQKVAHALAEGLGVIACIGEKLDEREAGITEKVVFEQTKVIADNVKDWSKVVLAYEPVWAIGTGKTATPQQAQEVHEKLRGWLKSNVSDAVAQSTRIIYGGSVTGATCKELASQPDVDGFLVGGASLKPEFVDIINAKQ
Sequence of Lysine-specific demethylase 5B (Q9UGL1 whole entry): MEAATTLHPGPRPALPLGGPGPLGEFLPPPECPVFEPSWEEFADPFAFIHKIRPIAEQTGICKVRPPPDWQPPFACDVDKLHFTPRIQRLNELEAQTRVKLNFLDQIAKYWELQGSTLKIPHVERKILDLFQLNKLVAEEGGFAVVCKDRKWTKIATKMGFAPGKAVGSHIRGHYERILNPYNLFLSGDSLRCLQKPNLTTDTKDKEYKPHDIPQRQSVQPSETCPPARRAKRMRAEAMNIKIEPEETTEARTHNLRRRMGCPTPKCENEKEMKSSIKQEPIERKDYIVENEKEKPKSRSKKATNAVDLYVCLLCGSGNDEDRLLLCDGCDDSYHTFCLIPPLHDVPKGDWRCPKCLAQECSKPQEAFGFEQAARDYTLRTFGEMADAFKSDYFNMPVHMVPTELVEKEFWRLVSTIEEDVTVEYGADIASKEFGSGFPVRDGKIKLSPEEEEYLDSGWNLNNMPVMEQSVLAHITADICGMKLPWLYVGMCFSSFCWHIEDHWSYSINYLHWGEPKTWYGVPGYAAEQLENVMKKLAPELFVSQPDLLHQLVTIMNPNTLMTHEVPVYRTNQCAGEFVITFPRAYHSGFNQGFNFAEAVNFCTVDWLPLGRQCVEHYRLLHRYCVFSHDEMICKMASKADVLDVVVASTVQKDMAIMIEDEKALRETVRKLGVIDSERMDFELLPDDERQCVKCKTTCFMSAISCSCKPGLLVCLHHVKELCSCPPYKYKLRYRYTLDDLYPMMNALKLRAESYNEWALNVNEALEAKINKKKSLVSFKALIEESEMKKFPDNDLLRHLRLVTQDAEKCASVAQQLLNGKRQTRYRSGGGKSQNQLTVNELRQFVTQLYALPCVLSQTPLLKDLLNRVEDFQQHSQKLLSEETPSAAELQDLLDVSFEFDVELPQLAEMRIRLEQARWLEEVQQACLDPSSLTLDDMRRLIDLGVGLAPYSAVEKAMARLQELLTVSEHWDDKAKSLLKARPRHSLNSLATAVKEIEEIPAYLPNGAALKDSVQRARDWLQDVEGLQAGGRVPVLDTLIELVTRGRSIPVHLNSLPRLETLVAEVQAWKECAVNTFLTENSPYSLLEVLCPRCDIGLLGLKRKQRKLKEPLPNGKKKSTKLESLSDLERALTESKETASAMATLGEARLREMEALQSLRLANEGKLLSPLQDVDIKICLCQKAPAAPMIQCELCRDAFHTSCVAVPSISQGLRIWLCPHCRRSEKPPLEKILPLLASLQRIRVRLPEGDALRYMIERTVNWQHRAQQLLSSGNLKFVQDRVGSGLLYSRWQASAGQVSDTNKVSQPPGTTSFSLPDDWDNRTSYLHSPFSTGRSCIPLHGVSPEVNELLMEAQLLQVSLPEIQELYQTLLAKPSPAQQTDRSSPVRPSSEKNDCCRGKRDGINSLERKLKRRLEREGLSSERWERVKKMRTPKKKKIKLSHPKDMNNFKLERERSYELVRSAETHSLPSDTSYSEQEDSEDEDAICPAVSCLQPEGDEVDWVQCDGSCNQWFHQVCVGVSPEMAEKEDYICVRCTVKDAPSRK

Compound: CCN(CCN(C)C)C(=O)CNCc1cc(C(=O)O)ccn1
IC50 [2]: 380 nM

Compound: O=C(Nc1ccc2c(=O)c3cccc(F)c3oc2c1)c1ccccc1
IC50 [10]: 1890 nM

Compound: O=c1cc(-c2ccc(O)c(-c3c(O)cc(O)c4c(=O)cc(-c5ccc(O)cc5)oc34)c2)oc2cc(O)cc(O)c12 [AMENTOFLAVONE]
EC50 [8]: 48.6 µg/mL

Compound: O=c1ccc2cc3ccoc3cc2o1 [PSORALEN]
EC50 [11]: 63700 nM

Compound: CCC[C@@H]1NC(=O)[C@H](CC(C)C)N(C)C(=O)[C@H](CC(C)C)N(C)C(=O)CN(CCO)C(=O)[C@H](CC(C)C)N(C)C(=O)[C@@H](C)NC(=O)[C@H](CCC(N)=O)NC(=O)[C@H](CC(C)C)N(C)C(=O)[C@H](C(C)C)NC(=O)[C@H](CC(C)C)N(C)C(=O)CN(C)C1=O (HELM PEPTIDE1{[meL].[meL].[Nva].[Sar].[meL].V.[meL].Q.[dA].[meL].[O=C(CN(CCO)[*:1])[*:2]]}$PEPTIDE1,PEPTIDE1,1:R1-11:R2$$$V2.0)
IC50 [12]: 360 nM

Compound: COc1ccc(-c2cc(=O)c3c(O)cc(O)c(-c4cc(-c5cc(=O)c6c(O)cc(OC)cc6o5)ccc4OC)c3o2)cc1 [SCIADOPITISIN]
EC50 [8]: 56.4 µg/mL

Compound: CCCCCCCCCc1cc(OC(=O)c2c(CCCCCCCCC)cc(O)cc2O[C@@H]2O[C@H](CO)[C@@H](O)[C@H](O)[C@H]2O)cc(O)c1C(=O)O
IC50 [1]: 1100 nM

Compound: CNC(=O)C1(NC(=O)C(=O)c2c(C)c(C(=O)Nc3ccc(F)c(F)c3)n3c2CCC3)CC(F)(F)C1
EC50 [13]: 80 nM

Compound: Cn1cnc(COC(=O)N[C@H]2CCc3c(C(=O)Nc4ccc(F)c(Cl)c4)ccc(F)c32)n1
EC50 [13]: 630 nM

Compound: Nc1ncnc2c1ncn2[C@@H]1OC[C@](F)(COP(=O)(O)OP(=O)(O)OP(=O)(O)O)[C@H]1CO
IC50 [15]: 320 nM

More lines, main results first:

IC50 [1]: 1890 nM
Compound: C=C(c1ccc(C(=O)O)cc1)c1cc2c(cc1C)C(C)(C)CCC2(C)C [BEXAROTENE]

EC50 [3]: > 10000 nM
Compound: O=C(NCc1ccc(-c2cccnc2)nc1)c1ccc2nccnc2c1

EC50 [3]: > 10000 nM
Compound: Cc1ccc2[nH]c(CCNc3nccc(-c4ccccn4)n3)nc2c1C

EC50 [4]: 22 nM
EC50 [5]: 27 nM
Compound: CN1[C@H](C(=O)Nc2ccc(F)c(Cl)c2)C[C@H](c2ncc(-c3cn(C)cn3)s2)NS1(=O)=O
EC50 [6]: 41 nM

IC50 [1]: 10600 nM
Compound: C[C@]12CCCC[C@@H]1CC[C@@H]1[C@@H]2CC[C@]2(C)[C@@H]([C@H](O)CCc3ccc(F)cc3)CC[C@@H]12

EC50 [7]: 500 nM
Compound: O=C(Nc1ccc(F)c(Cl)c1)c1cc(S(=O)(=O)NC2CCCC2)cc2c1OCCO2

EC50 [8]: 6240 nM
Compound: CCOCCOC(=O)C1=C(C)NC(c2ncc(F)cc2F)=NC1c1ccc(F)cc1C (stereo not given)

EC50 [9]: 23 nM
Compound: COC(=O)C1=C(C)NC(c2ncc(F)cc2F)=N[C@H]1c1ccc(F)cc1Cl

EC50 [3]: 10000 nM
Compound: Cc1nc(-c2c(-c3ccccc3)ncn2Cc2cccc3[nH]ccc23)c[nH]1

IC50 [10]: 279000 nM
Compound: C[C@]12CC[C@@H]3c4ccc(OC(=O)c5ccccc5)cc4CC[C@H]3[C@@H]1CC[C@@H]2O [ESTRADIOL BENZOATE]

EC50 [7]: 100 nM
Compound: O=C(Nc1ccc(F)c(C(F)F)c1)C1c2ccccc2NCC1CN1CCC(F)(F)CC1 (stereo not given)

EC50 [14]: > 10000 nM
Compound: Nc1ncnc2c1ncn2[C@@H]1OC[C@](F)(CO)[C@H]1CO

EC50 [3]: > 10000 nM
Compound: NCCCC(=O)NCc1nc(-c2cccc(F)c2)c(-c2ccccn2)[nH]1
